Consider twelve molecules from the supplement of paper PMC10883282.

The experiment concerns SW872. Briefly: relative viability vs DMSO control (72 h) (fraction); higher = more viable cells. The method, boiled down:
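Densities for seeding sarcoma cell lines into 384-well plates were set to give 80–90% confluence. After 24 h, 2.5 µl of serially diluted compound from source plates of 10 mM to 0.0002 mM went in, and plates stayed 72 h at 37 °C in 5% CO2 with 0.1% DMSO vehicle and a 5 µM positive control. Percent growth from ATPLite readings, averaged over up to triplicate wells, served as relative viability, rescaled so 1 means full and 0 means none.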

± gives the standard deviation of the averaged measurements.

For the molecule `CO[C@H]1C[C@@H]2CC[C@@H](C)[C@@](O)(O2)C(=O)C(=O)N2CCCC[C@H]2C(=O)O[C@H]([C@H](C)C[C@@H]2CC[C@@H](OP(C)(C)=O)[C@H](OC)C2)CC(=O)[C@H](C)/C=C(\C)[C@@H](O)[C@@H](OC)C(=O)[C@H](C)C[C@H](C)/C=C/C=C/C=C/1C` [Ridaforolimus], the relative viability reads like this: (0.00017 µM) 0.974 ± 0.036; (0.00051 µM) 0.833 ± 0.034; (0.00152 µM) 0.747 ± 0.021; (0.00457 µM) 0.7118 ± 0.0071; (0.01372 µM) 0.626 ± 0.035; (0.04115 µM) 0.6 ± 0.034. The relative viability runs as follows: (0.1235 µM) 0.5981 ± 0.0039; (0.3704 µM) 0.597 ± 0.0072; (1.111 µM) 0.579 ± 0.012; (3.333 µM) 0.565 ± 0.017; (10 µM) 0.565 ± 0.015.
As to `COc1cc2nccc(Oc3ccc(NC(=O)Nc4cc(C)on4)c(Cl)c3)c2cc1OC` [Tivozanib], the relative viability is, setting by setting: (0.00017 µM) 1.07 ± 0.073; (0.00051 µM) 1.07 ± 0.026; (0.00152 µM) 1.04 ± 0.031; (0.00457 µM) 1.06 ± 0.038; (0.01372 µM) 1.08 ± 0.031; (0.04115 µM) 1.09 ± 0.039. Also, the relative viability runs as follows: (0.1235 µM) 1.08 ± 0.044; (0.3704 µM) 1.1 ± 0.051; (1.111 µM) 1.07 ± 0.028; (3.333 µM) 1.03 ± 0.036; (10 µM) 0.691 ± 0.031.
`C[C@@H](c1ccc2nccn2c1)n1nnc2ncc(-c3cnn(C)c3)nc21` [Volitinib]: the relative viability by setting is: (0.00017 µM) 1.06 ± 0.029; (0.00051 µM) 1.06 ± 0.034; (0.00152 µM) 1.08 ± 0.027; (0.00457 µM) 1.08 ± 0.051; (0.01372 µM) 1.06 ± 0.045; (0.04115 µM) 1.089 ± 0.0097. Moreover, the relative viability (0.1235 µM) was determined as 1.07 ± 0.041; the relative viability (0.3704 µM) came out at 1.06 ± 0.043; the relative viability (1.111 µM) came out at 1.1 ± 0.026; the relative viability (3.333 µM) amounted to 1.05 ± 0.025; the relative viability (10 µM) amounted to 1.05 ± 0.044.
Consider `COc1cc2c(cc1O)CCN[C@]21CS[C@@H]2c3c(OC(C)=O)c(C)c4c(c3[C@H](COC1=O)N1[C@@H]2[C@H]2c3c(cc(C)c(OC)c3O)C[C@@H]([C@@H]1O)N2C)OCO4` [Trabectedin], for which the relative viability runs as follows: (2 pM) 1.045 ± 0.0069; (5 pM) 0.986 ± 0.05; (15 pM) 0.835 ± 0.034; (50 pM) 0.606 ± 0.1; (0.00014 µM) 0.281 ± 0.028; (0.00041 µM) 0.158 ± 0.0096. In addition, the relative viability by setting is: (0.0012 µM) 0.202 ± 0.01; (0.0037 µM) 0.245 ± 0.0073; (0.011 µM) 0.183 ± 0.0041; (200 fM) 1.03 ± 0.037; (600 fM) 1.038 ± 0.0094.
For the molecule `Cc1nc(-c2cn3c(n2)-c2ccc(-c4cnn(C(C)(C)C(N)=O)c4)cc2OCC3)n(C(C)C)n1` [Taselisib], the relative viability is, setting by setting: (0.00017 µM) 1 ± 0.044; (0.00051 µM) 0.996 ± 0.03; (0.00152 µM) 1.02 ± 0.021; (0.00457 µM) 0.9808 ± 0.006; (0.01372 µM) 0.93 ± 0.061; (0.04115 µM) 0.88 ± 0.017. The molecule further gave a relative viability (0.1235 µM) of 0.758 ± 0.029; a relative viability (0.3704 µM) of 0.643 ± 0.012; a relative viability (1.111 µM) of 0.504 ± 0.015; a relative viability (3.333 µM) of 0.381 ± 0.015; a relative viability (10 µM) of 0.284 ± 0.018.
On to `COc1cc2c(Oc3ccc4[nH]c(C)cc4c3F)ncnc2cc1OCCCN1CCCC1` [Cediranib], for which the relative viability by setting is: (0.00017 µM) 1.04 ± 0.024; (0.00051 µM) 1.05 ± 0.039; (0.00152 µM) 1.06 ± 0.042; (0.00457 µM) 1.05 ± 0.016; (0.01372 µM) 1.063 ± 0.0043; (0.04115 µM) 1.04 ± 0.035. The relative viability is 1.06 ± 0.027 (0.1235 µM); 1.03 ± 0.032 (0.3704 µM); 0.982 ± 0.022 (1.111 µM); 1.05 ± 0.021 (3.333 µM); 1.026 ± 0.002 (10 µM).
With `Cc1nc(NC(=O)N2CCC[C@H]2C(N)=O)sc1-c1ccnc(C(C)(C)C(F)(F)F)c1` [Alpelisib], the relative viability by setting is: (0.00017 µM) 1.04 ± 0.055; (0.00051 µM) 1.04 ± 0.046; (0.00152 µM) 1.03 ± 0.052; (0.00457 µM) 1 ± 0.062; (0.01372 µM) 0.965 ± 0.068; (0.04115 µM) 0.938 ± 0.077. The relative viability was found to be 0.835 ± 0.039 (0.1235 µM); 0.778 ± 0.062 (0.3704 µM); 0.698 ± 0.085 (1.111 µM); 0.565 ± 0.035 (3.333 µM); 0.398 ± 0.024 (10 µM).
As for `COc1cc2/c(=N/c3ccc(Br)cc3F)nc[nH]c2cc1OCC1CCN(C)CC1` [Vandetanib], the relative viability runs as follows: (0.00017 µM) 1.02 ± 0.046; (0.00051 µM) 1.01 ± 0.052; (0.00152 µM) 1 ± 0.036; (0.00457 µM) 1.02 ± 0.041; (0.01372 µM) 1.03 ± 0.02; (0.04115 µM) 0.987 ± 0.051. Also, the relative viability is, setting by setting: (0.1235 µM) 0.964 ± 0.0059; (0.3704 µM) 0.91 ± 0.025; (1.111 µM) 0.802 ± 0.03; (3.333 µM) 0.5804 ± 0.0048; (10 µM) 0.00997 ± 0.0034.
As to `C[C@]1(O)C[C@@H](c2nc(-c3ccc4ccc(-c5ccccc5)nc4c3)c3c(N)nccn32)C1` [Linsitinib], the relative viability came to 1.04 ± 0.037 (0.00017 µM); 1.05 ± 0.014 (0.00051 µM); 1.03 ± 0.041 (0.00152 µM); 1 ± 0.043 (0.00457 µM); 0.995 ± 0.048 (0.01372 µM); 0.973 ± 0.027 (0.04115 µM). The relative viability is, setting by setting: (0.1235 µM) 0.9745 ± 0.0092; (0.3704 µM) 0.9267 ± 0.0035; (1.111 µM) 0.914 ± 0.027; (3.333 µM) 0.821 ± 0.028; (10 µM) 0.615 ± 0.018.
On to `C=CC(=O)N1CCC([C@@H]2CCNc3c(C(N)=O)c(-c4ccc(Oc5ccccc5)cc4)nn32)CC1` [Zanubrutinib], for which the relative viability is 1.01 ± 0.032 (0.00017 µM); 1.03 ± 0.028 (0.00051 µM); 0.996 ± 0.038 (0.00152 µM); 1.01 ± 0.029 (0.00457 µM); 0.9666 ± 0.0096 (0.01372 µM); 0.954 ± 0.046 (0.04115 µM). The relative viability came to 0.883 ± 0.066 (0.1235 µM); 0.923 ± 0.026 (0.3704 µM); 0.912 ± 0.034 (1.111 µM); 0.929 ± 0.029 (3.333 µM); 0.844 ± 0.022 (10 µM).
Take `Cn1cc(-c2cc3c(N4CCN(c5ncc([C@@](C)(N)c6ccc(F)cc6)cn5)CC4)ncnn3c2)cn1` [Avapritinib]: the relative viability (0.00017 µM) was determined as 0.913 ± 0.047; the relative viability (0.00051 µM) stood at 0.95 ± 0.022; the relative viability (0.00152 µM) came out at 0.965 ± 0.041; the relative viability (0.00457 µM) was found to be 0.939 ± 0.026; the relative viability (0.01372 µM) came out at 0.972 ± 0.036; the relative viability (0.04115 µM) is 0.941 ± 0.035. The relative viability came to 0.953 ± 0.032 (0.1235 µM); 0.886 ± 0.038 (0.3704 µM); 0.846 ± 0.029 (1.111 µM); 0.766 ± 0.038 (3.333 µM); 0.67 ± 0.028 (10 µM).
`CC(=O)Nc1cccc(-n2c(=O)n(C3CC3)c(=O)c3c(Nc4ccc(I)cc4F)n(C)c(=O)c(C)c32)c1` [Trametinib] had a relative viability (0.00017 µM) of 1.11 ± 0.046; a relative viability (0.00051 µM) of 1.05 ± 0.055; a relative viability (0.00152 µM) of 0.856 ± 0.059; a relative viability (0.00457 µM) of 0.674 ± 0.046; a relative viability (0.01372 µM) of 0.597 ± 0.0061; a relative viability (0.04115 µM) of 0.607 ± 0.034. Further, the relative viability reads like this: (0.1235 µM) 0.593 ± 0.008; (0.3704 µM) 0.593 ± 0.022; (1.111 µM) 0.562 ± 0.015; (3.333 µM) 0.549 ± 0.031; (10 µM) 0.564 ± 0.014.
